{"source": "patent US20080249075A1", "about": "“C11 Modified Retrosteroids as Progesterone Receptor Modulator Compounds” (Solvay Pharmaceuticals GmbH, priority 2007, published 2008)", "key": {"[1]": {"target": "T1, human progesterone receptor (Homo sapiens, UniProt P06401)", "T1 sequence (P06401 679-933 limits assumed)": "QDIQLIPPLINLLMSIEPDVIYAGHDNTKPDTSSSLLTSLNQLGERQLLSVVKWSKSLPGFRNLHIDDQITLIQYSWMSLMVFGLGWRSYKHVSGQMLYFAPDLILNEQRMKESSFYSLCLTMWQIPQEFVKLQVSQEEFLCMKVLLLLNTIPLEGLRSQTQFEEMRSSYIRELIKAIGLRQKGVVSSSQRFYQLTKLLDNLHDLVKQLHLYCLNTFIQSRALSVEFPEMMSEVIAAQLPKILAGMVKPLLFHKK", "experiment": "Progesterone receptor binding assay, human PR (CEREP)", "details": "3H-R5020 as ligand, MCF7 cells as source of PR; for Ki: read-out: Human PR binding (pKi) (converted)", "description": "The progesterone receptor (PR) binding assays were performed at CEREP (Celle I'Evescault, France).\nThe binding to the human progesterone receptor (Assay Cat No: Progesterone receptor-814h) was be measured using 3H-R5020 as ligand and MCF7 cells as the source of progesterone receptor. The assay is performed as described by Eckert & Katzenellenbogen [1982]. The binding to the bovine progesterone receptor (Assay Cat No: Progesterone receptor-814) was measured using 3H-R5020 as ligand and uterus tissue as the source of progesterone receptor. The assay was performed as described by Hurd & Moudgil [1988].\nThe results of the receptor binding assay are presented as the individual pKi values, which were determined by measuring the binding activity to the human or bovine PR, as indicated, for a concentration range of each compound."}, "[2]": {"test_system": "T47D human breast carcinoma cells", "experiment": "cells", "assay_type": "cell-based", "details": "for activation at 0.1 µM / inhibition at 0.1 µM / IC50: Homo sapiens, T47D; for activation at 0.1 µM: 48 h, read-out: PS [100 nM] (% stimulation); for inhibition at 0.1 µM: read-out: PI [100 nM] (% inhibition); for IC50: read-out: pIC50 (converted)", "description": "The progesterone-dependent modulation of alkaline phosphatase expression was examined using T47D human breast carcinoma cells [Keydar et al., 1979]. The assay was performed as previously described by Di Lorenzo et al. (1991) with the modification of using Dydrogesterone as comparative progestin to determine the antagonistic and agonistic activity.\nThe cell line was purchased from CLS Cell Lines Service (Hildastrasse 21, D-69214 Eppelheim, Germany). In brief, the cells were plated in 96-well plates at 40,000 cells/well using the following growth medium: RPMI 1640 with: 10% FBS, 1 mM Sodium Pyruvat MEM, 10 mM Hepes, 0.01 mg/ml Bovine insulin, and 25 μg/ml Gentamycin. After 24 h of cultivation, the growth medium was replaced with medium containing 2% fetal bovine serum and the test compounds were added to each well to achieve the appropriate compound concentration: For determination of agonistic activity only the test compounds were added; for measurement of antagonistic activity the test compounds and additionally Dydrogesterone as standard progesterone agonist was added to a final concentration of 1 nM. After 48 h of cultivation, the medium was removed and the cells were washed with 200 μl of Dulbecco's phosphate-buffered saline without calcium and magnesium (PBS(−)). Then the cells were fixed with 3.7% formaldehyde in phosphate-buffered saline for 15 min at 22° C. After washing the cells with PBS, 100 μl of a […] (pNPP) solution (pNPP Liquid Substrate System; Sigma) was added to each well and incubated for 2 h at room temperature protected from light. The reaction was stopped with 100 μl 1N NaOH and the absorbance was measured with a spectrophotometer (Victor, Perkin Elmer) at 405 nm. The results are expressed as alkaline phosphatase induction (as 100% with 1 nM Dydrogesterone) or inhibition (against alkaline phosphatase induction by 1 nM Dydrogesterone) at a certain concentration of test compound.\n% stimulation=(effect compound−basal)/(effect dydro 1 nM−basal)*100% inhibition of 1 nM Dydro=100*{1-[(effect compound−basal)/(effect dydro 1 nM−basal)]}\nFor each compound the % inhibition (PI) and % stimulation (PS), respectively, at a compound concentration of 100 nM was determined. For selected compounds, the corresponding values were measured for several different concentrations, and subsequently were plotted against the concentration of the test compound, and used to calculate the IC50 value (for the antagonistic potency; the IC50 value is the concentration (nM), required to reduce the maximal response by 50%) and EC50 values (for the agonistic potency; the EC50 value is the effective concentration (nM) that produced 50% of the maximum response), respectively."}}}
{"smiles": "CSc1cccc(NC(=O)O[C@H]2C[C@]3(C)[C@@H](C(C)=O)CC[C@H]3[C@@H]3C=CC4=CC(=O)CC[C@@]4(C)[C@@H]32)c1", "note": "[compound 92, (3-Methylsulfanyl-phenyl)-carbamic acid dydrogesterone-11-yl ester]", "values": [{"measurement": "Ki", "setting": "[1]", "result": "≥ 631", "unit": "nM"}, {"measurement": "activation at 0.1 µM", "setting": "[2]", "result": 1, "unit": "%"}, {"measurement": "inhibition at 0.1 µM", "setting": "[2]", "result": 55, "unit": "%"}, {"measurement": "IC50", "setting": "[2]", "result": 100, "unit": "nM"}]}
{"smiles": "CC(=O)Nc1ccc(NC(=O)OC2C[C@]3(C)[C@@H](C(C)=O)CC[C@H]3[C@@H]3C=CC4=CC(=O)CC[C@@]4(C)[C@H]23)cc1", "note": "(some centres unmarked) [compound 82, (4-Acetylamino-phenyl)-carbamicacid dydrogesterone-11-yl ester]", "values": [{"measurement": "Human PR binding (pKi)", "setting": "[1]", "result": 6.6}, {"measurement": "PS [100 nM] (% stimulation)", "setting": "[2]; agonistic mode, alkaline phosphatase induction (100% = 1 nM Dydrogesterone), compound 100 nM, T47D cells", "result": 0.0, "unit": "%"}, {"measurement": "PI [100 nM] (% inhibition)", "setting": "[2]; antagonistic mode, inhibition of alkaline phosphatase induction by 1 nM Dydrogesterone, compound 100 nM, T47D cells", "result": 40.0, "unit": "%"}]}
{"smiles": "COc1cc(NC(=O)O[C@H]2C[C@]3(C)[C@@H](C(C)=O)CC[C@H]3[C@@H]3C=CC4=CC(=O)CC[C@@]4(C)[C@@H]32)cc(OC)c1OC", "note": "[Compound No. 24, (3,4,5-Trimethoxy-phenyl)-carbamic acid dydrogesterone-11β-yl ester]", "values": [{"measurement": "Ki", "setting": "[1]", "result": 200, "unit": "nM"}, {"measurement": "activation at 0.1 µM", "setting": "[2]", "result": 0, "unit": "%"}, {"measurement": "inhibition at 0.1 µM", "setting": "[2]", "result": 88, "unit": "%"}, {"measurement": "IC50", "setting": "[2]", "result": 50.1, "unit": "nM"}]}
